Measurements published in PubChem BioAssay (NCI).
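A five-concentration, 48-hour dose response in 96-well plates underlies each endpoint, interpolated linearly between surrounding concentrations. At the GI50, growth is halved. TGI: concentration producing complete growth inhibition.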

Key:
Assay in all cases: NCI tumour cell line growth inhibition, 48 h; in the data active = GI50 below about 0.43 µM; inactive = the rest
786-0 renal = tested on: 786-0 renal
A498 renal = tested on: A498 renal
A549 NSCLC = tested on: A549 NSCLC
ACHN renal = tested on: ACHN renal
BT-549 breast = tested on: BT-549 breast
CAKI-1 renal = tested on: CAKI-1 renal
CCRF-CEM leukemia = tested on: CCRF-CEM leukemia
COLO 205 colon = tested on: COLO 205 colon
DU-145 prostate = tested on: DU-145 prostate
EKVX NSCLC = tested on: EKVX NSCLC
HCT-116 colon = tested on: HCT-116 colon
HCT-15 colon = tested on: HCT-15 colon
HL-60(TB) leukemia = tested on: HL-60(TB) leukemia
HOP-62 NSCLC = tested on: HOP-62 NSCLC
HOP-92 NSCLC = tested on: HOP-92 NSCLC
HS 578T breast = tested on: HS 578T breast
HT29 colon = tested on: HT29 colon
IGROV1 ovarian = tested on: IGROV1 ovarian
K-562 leukemia = tested on: K-562 leukemia
KM12 colon = tested on: KM12 colon
LOX IMVI melanoma = tested on: LOX IMVI melanoma
M14 melanoma = tested on: M14 melanoma
MCF7 breast = tested on: MCF7 breast
MDA-MB-231 breast = tested on: MDA-MB-231 breast
MDA-MB-435 = tested on: MDA-MB-435
MOLT-4 leukemia = tested on: MOLT-4 leukemia
NCI-H226 lung = tested on: NCI-H226 lung
NCI-H460 lung = tested on: NCI-H460 lung
NCI-H522 lung = tested on: NCI-H522 lung
OVCAR-3 ovarian = tested on: OVCAR-3 ovarian
OVCAR-4 ovarian = tested on: OVCAR-4 ovarian
OVCAR-8 ovarian = tested on: OVCAR-8 ovarian
PC-3 prostate = tested on: PC-3 prostate
RPMI-8226 leukemia = tested on: RPMI-8226 leukemia
RXF 393 renal = tested on: RXF 393 renal
SF-268 CNS = tested on: SF-268 CNS
SF-295 CNS = tested on: SF-295 CNS
SF-539 CNS = tested on: SF-539 CNS
SK-MEL-2 melanoma = tested on: SK-MEL-2 melanoma
SK-MEL-28 melanoma = tested on: SK-MEL-28 melanoma
SK-MEL-5 melanoma = tested on: SK-MEL-5 melanoma
SK-OV-3 ovarian = tested on: SK-OV-3 ovarian
SN12C renal = tested on: SN12C renal
SNB-19 CNS = tested on: SNB-19 CNS
SNB-75 CNS = tested on: SNB-75 CNS
SR leukemia = tested on: SR leukemia
SW-620 colon = tested on: SW-620 colon
T-47D breast = tested on: T-47D breast
TK-10 renal = tested on: TK-10 renal
U251 CNS = tested on: U251 CNS
UACC-257 melanoma = tested on: UACC-257 melanoma
UACC-62 melanoma = tested on: UACC-62 melanoma
UO-31 renal = tested on: UO-31 renal

CCOC(=O)c1sc(=S)c2c(C(=O)c3ccccc3)c(C(=O)c3ccccc3)sc2c1C(=O)OCC
9.32 µM: TGI (ACHN renal)
12.6 µM: TGI (BT-549 breast)
63.5 µM: TGI (TK-10 renal)
90.1 µM: TGI (HOP-92 NSCLC)
52.2 µM: TGI (A498 renal) | TGI (EKVX NSCLC)
9.19 µM: TGI (RPMI-8226 leukemia)
48.4 µM: TGI (SK-MEL-2 melanoma)
5.98 µM: TGI (SR leukemia)
34.5 µM: TGI (MDA-MB-231 breast)
26.6 µM: TGI (MCF7 breast)
71.8 µM: TGI (SF-268 CNS)
11 µM: TGI (KM12 colon)
9.66 µM: TGI (MDA-MB-435)
45.6 µM: TGI (COLO 205 colon)
> 100 µM: TGI (786-0 renal) | TGI (A549 NSCLC) | TGI (CAKI-1 renal) | TGI (DU-145 prostate) | TGI (HCT-116 colon) | TGI (HCT-15 colon) | TGI (HOP-62 NSCLC) | TGI (HT29 colon) | TGI (K-562 leukemia) | TGI (LOX IMVI melanoma) | TGI (M14 melanoma) | TGI (MOLT-4 leukemia) | TGI (NCI-H226 lung) | TGI (NCI-H460 lung) | TGI (OVCAR-4 ovarian) | TGI (OVCAR-8 ovarian) | TGI (RXF 393 renal) | TGI (SK-MEL-28 melanoma) | TGI (SK-OV-3 ovarian) | TGI (SNB-19 CNS) | TGI (SNB-75 CNS) | TGI (SW-620 colon) | TGI (T-47D breast) | TGI (U251 CNS) | TGI (UO-31 renal)
5.76 µM: TGI (SK-MEL-5 melanoma)
inactive: GI50 (786-0 renal) 6.8 µM | GI50 (A498 renal) 7.96 µM | GI50 (A549 NSCLC) 5.17 µM | GI50 (ACHN renal) 3 µM | GI50 (BT-549 breast) 3.43 µM | GI50 (CAKI-1 renal) 3.93 µM | GI50 (CCRF-CEM leukemia) 2.1 µM | GI50 (COLO 205 colon) 15.8 µM | GI50 (DU-145 prostate) 4.07 µM | GI50 (EKVX NSCLC) 4.94 µM | GI50 (HCT-116 colon) 4.16 µM | GI50 (HCT-15 colon) 4.1 µM | GI50 (HL-60(TB) leukemia) 2.71 µM | GI50 (HOP-62 NSCLC) 9.16 µM | GI50 (HOP-92 NSCLC) 4.74 µM | GI50 (HS 578T breast) 3.54 µM | GI50 (HT29 colon) 6.9 µM | GI50 (IGROV1 ovarian) 5.24 µM | GI50 (K-562 leukemia) 3.21 µM | GI50 (KM12 colon) 2.44 µM | GI50 (LOX IMVI melanoma) 5.08 µM | GI50 (M14 melanoma) 5.56 µM | GI50 (MCF7 breast) 3.74 µM | GI50 (MDA-MB-231 breast) 3.61 µM | GI50 (MDA-MB-435) 3.34 µM | GI50 (MOLT-4 leukemia) 3.58 µM | GI50 (NCI-H226 lung) 6.68 µM | GI50 (NCI-H460 lung) 21 µM | GI50 (NCI-H522 lung) 2.66 µM | GI50 (OVCAR-3 ovarian) 2.01 µM | GI50 (OVCAR-4 ovarian) 9.58 µM | GI50 (OVCAR-8 ovarian) 3.44 µM | GI50 (PC-3 prostate) 3.61 µM | GI50 (RPMI-8226 leukemia) 2.87 µM | GI50 (RXF 393 renal) 4.48 µM | GI50 (SF-268 CNS) 3.55 µM | GI50 (SF-295 CNS) 2.86 µM | GI50 (SF-539 CNS) 3.82 µM | GI50 (SK-MEL-2 melanoma) 3.51 µM | GI50 (SK-MEL-28 melanoma) 25.3 µM | GI50 (SK-MEL-5 melanoma) 2.38 µM | GI50 (SK-OV-3 ovarian) 37.4 µM | GI50 (SN12C renal) 3.16 µM | GI50 (SNB-19 CNS) 8.87 µM | GI50 (SNB-75 CNS) 22.6 µM | GI50 (SR leukemia) 2.58 µM | GI50 (SW-620 colon) 4.25 µM | GI50 (T-47D breast) 8.64 µM | GI50 (TK-10 renal) 3.17 µM | GI50 (U251 CNS) 3.49 µM | GI50 (UACC-257 melanoma) 3.45 µM | GI50 (UACC-62 melanoma) 2.99 µM | GI50 (UO-31 renal) 5.12 µM
5.93 µM: TGI (OVCAR-3 ovarian)
6.89 µM: TGI (NCI-H522 lung)
19.2 µM: TGI (SN12C renal)
17.8 µM: TGI (SF-539 CNS) | TGI (UACC-62 melanoma)
85.7 µM: TGI (IGROV1 ovarian)
61.1 µM: TGI (HS 578T breast)
13.5 µM: TGI (SF-295 CNS)
35.4 µM: TGI (PC-3 prostate)
25.7 µM: TGI (UACC-257 melanoma)
7.58 µM: TGI (HL-60(TB) leukemia)
5.99 µM: TGI (CCRF-CEM leukemia)
